Source: patent publication US12291515B2, “Pyrrolidine derivative and use thereof” (Rushi Biotech (Hangzhou) Co., Ltd, priority 2021, dated 2025)

Legend:
Assay type in all cases: cell-based
[1] = system: Human multiple myeloma cell RPMI 8226; experiment: CCK-8 cell proliferation assay, RPMI8226; details: RPMI8226 cells, CCK-8, 24 hrs with drug, OD 450 nm
Procedure: (§1) The effect of samples on the proliferation of human tumor cells in vitro was determined by CCK-8 cell proliferation assay.
(§2) The cells were assayed through a method including the following steps:
(§3) 1) The cells were digested, counted, and prepared into a cell suspension in a corresponding culture medium (Table 1) (5×10^4 cells/ml for CFPAC-1 and RPMI 8226, and 3.5×10^4 cells/ml for rest cells). The cell suspension was added to each well of a 96-well plate in 100 μl well.
(§4) 2) Then the 96-well plate was incubated for 24 hrs in an incubator at 37° C. and 5% CO2.
(§5) 3) The drug was diluted with the culture medium to the required working concentration. 100 μl of the corresponding drug containing medium was added to each well. A negative control group (added with drug-free culture medium) was also set.
(§6) 4) Then the 96-well plate was incubated for 24 hrs in an incubator at 37° C. and 5% CO2.
(§7) 5) The 96-well plate was stained with CCK-8, and The OD value was determined at λ=450 nm.
(§8) a) 10 μl of CCK-8 was added to each well, and incubated in the incubator for another 2-3 hrs.
(§9) b) The content was mixed uniformly by shaking gently on a shaker for 10 min, and the bubbles in the 96-well plate were removed.
(§10) 6) The inhibition rate in each group was calculated.

[2] = system: Human lung adenocarcinoma cell A549; experiment: CCK-8 cell proliferation assay, A549; details: A549 cells, CCK-8, 24 hrs with drug, OD 450 nm
Procedure: as §1, §2, §3, §4, §5, §6, §7, §8, §9, §10

[3] = system: Human esophageal cancer cell TE-1; experiment: CCK-8 cell proliferation assay, TE-1; details: TE-1 cells, CCK-8, 24 hrs with drug, OD 450 nm
Procedure: as §1, §2, §3, §4, §5, §6, §7, §8, §9, §10

[4] = system: Human pancreatic cancer cell CFPAC-1; experiment: CCK-8 cell proliferation assay, CFPAC-1; details: CFPAC-1 cells, CCK-8, 24 hrs with drug, OD 450 nm
Procedure: as §1, §2, §3, §4, §5, §6, §7, §8, §9, §10

[5] = system: Human gastric cancer cell MKN45; experiment: CCK-8 cell proliferation assay, MKN-45; details: MKN-45 cells, CCK-8, 24 hrs with drug, OD 450 nm
Procedure: as §1, §2, §3, §4, §5, §6, §7, §8, §9, §10

[6] = system: Human hepatoma cell HepG2; experiment: CCK-8 cell proliferation assay, HepG2; details: HepG2 cells, CCK-8, 24 hrs with drug, OD 450 nm
Procedure: as §1, §2, §3, §4, §5, §6, §7, §8, §9, §10

[7] = system: Human colon cancer cell HCT-116; experiment: CCK-8 cell proliferation assay, HCT116; details: HCT116 cells, CCK-8, 24 hrs with drug, OD 450 nm
Procedure: as §1, §2, §3, §4, §5, §6, §7, §8, §9, §10

| Structure (SMILES) | IC50 [1] [nM] | IC50 [2] [nM] | IC50 [3] [nM] | IC50 [4] [nM] | IC50 [5] [nM] | IC50 [6] [nM] | IC50 [7] [nM] |
| --- | --- | --- | --- | --- | --- | --- | --- |
| O=C(NCCCCC[C@H]1CCN(C(=O)c2cccs2)C1)Nc1ccncc1 [BSS-TP039, (S)-1-(5-(1-(2-thienylformyl)pyrrolidin-3-yl)pentyl)-2-(4-pyridinyl)urea] | 38 | 46 | 73 | 25 | 47 | 60 | 71 |
| O=C(NCCCCC[C@@H]1CCN(C(=O)c2cccs2)C1)Nc1ccncc1 [BSS-TP040, (R)-1-(5-(1-(2-thienylformyl)pyrrolidin-3-yl)pentyl)-2-(4-pyridinyl)urea] | 24 | 43 | 65 | 29 | 31 | 49 | 52 |
| O=C(NCCCCCCC1CCN(C(=O)c2ccccc2)C1)Nc1ccncc1 (stereo not shown) [BSS-TP101, 1-(6-(1-(benzoyl)pyrrolidin-3-yl)hexyl)-2-(4-pyridinyl)urea] | 21 | 35 | 64 | 29 | 39 | 50 | 22 |
| COc1cccc(OC)c1C(=O)N1CCC(CCCCCCNC(=O)Nc2ccncc2)C1 (stereo not shown) [BSS-TP102, 1-(6-(1-(2,6-dimethoxybenzoyl)pyrrolidin-3-yl)hexyl)-2-(4-pyridinyl) urea] | 10 | 23 | 29 | 13 | 30 | 35 | 27 |
| O=C(NCCCCCCC1CCN(C(=O)c2cccs2)C1)Nc1ccncc1 (stereo not shown) [BSS-TP103, 1-(6-(1-(2-thienylformyl)pyrrolidin-3-yl)hexyl)-2-(4-pyridinyl)urea] | 15 | 28 | 50 | 31 | 36 | 43 | 88 |
| O=C(NCCCCCCC1CCN(C(=O)c2ccc[nH]2)C1)Nc1ccncc1 (stereo not shown) [BSS-TP104, 1-(6-(1-(2-pyrrolylformyl)pyrrolidin-3-yl)hexyl)-2-(4-pyridinyl)urea] | 29 | 33 | 62 | 33 | 46 | 75 | 57 |
| O=C(NCCCCCCC1CCN(C(=O)c2ccco2)C1)Nc1ccncc1 (stereo not shown) [BSS-TP105, 1-(6-(1-(furoyl)pyrrolidin-3-yl)hexyl)-2-(4-pyridinyl)urea] | 20 | 43 | 76 | 37 | 32 | 61 | 53 |
| O=C(NCCCCCCC1CCN(C(=O)C2CCCN2)C1)Nc1ccncc1 (stereo not shown) [BSS-TP106, 1-(6-(1-(2-pyrrolidinylformyl)pyrrolidin-3-yl)hexyl)-2-(4-pyridinyl)urea] | 47 | 68 | 97 | 46 | 58 | 119 | 66 |
| O=C(NCCCCCCC1CCN(C(=O)C2CCCO2)C1)Nc1ccncc1 (stereo not shown) [BSS-TP107, 1-(6-(1-(2-tetrahydrofurylformyl)pyrrolidin-3-yl)hexyl)-2-(4-pyridinyl)urea] | 51 | 55 | 82 | 58 | 53 | 137 | 76 |
| O=C(NCCCCCCC1CCN(C(=O)C2CCCS2)C1)Nc1ccncc1 (stereo not shown) [BSS-TP108, 1-(6-(1-(2-tetrahydrothienylformyl)pyrrolidin-3-yl)hexyl)-2-(4-pyridinyl)urea] | 32 | 49 | 73 | 41 | 49 | 92 | 59 |
| O=C(NCCCCCCC1CCN(C(=O)c2ccccc2)C1)Nc1cccnc1 (stereo not shown) [BSS-TP109, 1-(6-(1-(benzoyl)pyrrolidin-3-yl)hexyl)-2-(3-pyridinyl)urea] | 23 | 29 | 88 | 26 | 53 | 71 | 47 |
| O=C(NCCCCCCC1CCN(C(=O)c2cccs2)C1)Nc1cccnc1 (stereo not shown) [BSS-TP110, 1-(6-(1-(2-thienylformyl)pyrrolidin-3-yl)hexyl)-2-(3-pyridinyl)urea] | 56 | 44 | 109 | 52 | 75 | 116 | 73 |
| O=C(NCCCCCCC1CCN(C(=O)c2ccco2)C1)Nc1cccnc1 (stereo not shown) [BSS-TP111, 1-(6-(1-(furoyl)pyrrolidin-3-yl)hexyl)-2-(3-pyridinyl)urea] | 53 | 61 | 133 | 42 | 77 | 87 | 62 |
| O=C(NCCCCCCC1CCN(C(=O)c2ccc[nH]2)C1)Nc1cccnc1 (stereo not shown) [BSS-TP112, 1-(6-(1-(2-pyrrolylformyl)pyrrolidin-3-yl)hexyl)-2-(3-pyridinyl)urea] | 42 | 52 | 93 | 36 | 59 | 81 | 78 |
| O=C(NCCCCCCC1CCN(C(=O)c2ccccc2)C1)Nc1ccnc(F)c1 (stereo not shown) [BSS-TP113] | 38 | 33 | 77 | 38 | 42 | 83 | 41 |
| O=C(NCCCCCCC1CCN(C(=O)c2ccc[nH]2)C1)Nc1ccnc(F)c1 (stereo not shown) [BSS-TP114] | 39 | 49 | 76 | 33 | 51 | 72 | 85 |
| O=C(NCCCCCCC1CCN(C(=O)c2ccco2)C1)Nc1ccnc(F)c1 (stereo not shown) [BSS-TP115] | 46 | 51 | 88 | 39 | 40 | 79 | 68 |
| O=C(NCCCCCCC1CCN(C(=O)c2cccs2)C1)Nc1ccnc(F)c1 (stereo not shown) [BSS-TP116] | 31 | 39 | 69 | 47 | 79 | 81 | 83 |
| O=C(NCCCCCCC1CCN(C(=O)c2ccccc2)C1)Nc1cc(F)nc(F)c1 (stereo not shown) [BSS-TP117] | 36 | 58 | 47 | 37 | 45 | 49 | 53 |
| O=C(NCCCCCCC1CCN(C(=O)c2ccco2)C1)Nc1cc(F)nc(F)c1 (stereo not shown) [BSS-TP118] | 24 | 59 | 81 | 42 | 62 | 64 | 61 |
| O=C(NCCCCCCC1CCN(C(=O)c2cccs2)C1)Nc1cc(F)nc(F)c1 (stereo not shown) [BSS-TP119] | 43 | 72 | 87 | 38 | 61 | 83 | 50 |
| O=C(NCCCCCCC1CCN(C(=O)c2ccc[nH]2)C1)Nc1cc(F)nc(F)c1 (stereo not shown) [BSS-TP120] | 28 | 47 | 49 | 35 | 42 | 53 | 66 |
